Here are results for 8 compounds from patent publication US7910582B2, “Cyclopropyl amines as modulators of the histamine H3 receptor” (Janssen Pharmaceutica NV, priority 2005, dated 2011).

Each structure is given as a SMILES string. “Also recorded” adds a separate entry of the source. Where a name gives a salt, the structure may show the parent alone. Read-outs that look alike come from different tables or passages of the source.

Data set [1] addresses T1, Human H3 Receptor (Homo sapiens, UniProt Q9Y5N1).
T1 construct: expressed in transfected cells
Put plainly: Cyclic AMP accumulation, SK-N-MC cells with reporter construct and human H3 receptor (pA2). In kind it is cell-based. Conditions: pA2, average of results. The method, then: Cells were grown to about 70% to 80% confluence and removed from the plate with trypsin and pelleted in a clinical centrifuge. […] One μg supercoiled H3 receptor cDNA was added to the cells and mixed gently. The voltage for the electroporation was set at 0.25 kV and the capacitance was set at 960 μF. After electroporation the cells were diluted with 10 mL of complete media and were plated onto four 10 cm dishes at the following ratios: 1:20, 1:10, 1:5, and 1:2. […] Colonies that survived selection were grown and tested. SK-N-MC cells were used because they give efficient coupling for inhibition of adenylate cyclase. The clones that gave the most robust inhibition of adenylate cyclase in response to histamine were used for further study.
Sublines of SK-N-MC cells were created that expressed a reporter construct and the human H3 receptor.

For data set [2], the target named is T1, Human H3 Receptor. Put plainly: [3H]-N-Methylhistamine binding, membranes of H3 receptor-expressing SK-N-MC cells. Conditions: 0.8 nM [3H]-N-methylhistamine, 60 min at 25° C., average of results; read-out: Ki. The method, then:
Cells were grown to about 70% to 80% confluence and removed from the plate with trypsin and pelleted in a clinical centrifuge. The pellet was then re-suspended in 400 μL of complete media and transferred to an electroporation cuvette with a 0.4 cm gap between the electrodes (Bio-Rad #165-2088). One μg supercoiled H3 receptor cDNA was added to the cells and mixed gently. The voltage for the electroporation was set at 0.25 kV and the capacitance was set at 960 μF. After electroporation the cells were diluted with 10 mL of complete media and were plated onto four 10 cm dishes at the following ratios: 1:20, 1:10, 1:5, and 1:2. The cells were allowed to recover for 24 h before adding 600 μg G-418. Colonies that survived selection were grown and tested. SK-N-MC cells were used because they give efficient coupling for inhibition of adenylate cyclase. The clones that gave the most robust inhibition of adenylate cyclase in response to histamine were used for further study.
Cell pellets from histamine H3 receptor-expressing SK-N-MC cells were homogenized in 50 mM TrisHCl/0.5 mM EDTA. Supernatants from an 800 g spin were collected and were recentrifuged at 30,000 g for 30 min. Pellets were re-homogenized in 50 mM Tris/5 mM EDTA (pH 7.4). Membranes were incubated with 0.8 nM [^3H]-N-methylhistamine plus/minus test compounds for 60 min at 25° C. and were harvested by rapid filtration over GF/C glass fiber filters (pretreated with 0.3% polyethylenimine) followed by four washes with buffer. Filters were added to 5 mL of scintillation cocktail, and the signal was then counted on a liquid scintillation counter.

The nature of data set [3]: Pharmacokinetics and bioanalysis in the rat. In kind it is in vivo, male Sprague Dawley Rats. Conditions: for AUC(0-inf): read-out: AUCINF (h-μmol/mL). The method, then: One group of six male Sprague Dawley Rats (approx. 300 g body weight; three animals per time point) was used. They were group-housed, provided food and water ad libitum, and were maintained on a 12-h light and dark cycle. Animals were acclimatized for at least 7 days after receipt from the vendor prior to investigations.
For oral dosing, test compounds were formulated at 1 mg/mL in 0.5% hydroxypropyl methyl cellulose and delivered at a dose of 10 mg/kg. Citric acid salt forms (prepared as described for Example 1B) of the test compounds were used. Animals received a bolus dose of 10 mg/kg (10 mL/kg) for each compound via a 16 gauge intragastric gavage. For intravenous dosing, test compounds were formulated at 1 mg/mL in 5% dextrose in water and dosed at 1 mg/kg (1 mL/kg) with a bolus intravenous dose via a 24-gauge Terumo® Surflo® catheter in the lateral tail vein. All dosing solutions were prepared immediately prior to injection.
Blood samples (250 μL) were taken from the lateral tail vein into heparinized Natelson blood collection tubes and expelled into 1.5 mL mcirocentrifuge tubes. The blood samples were centrifuged for 5 min at 14,000 rpm in a micro-centrifuge. Plasma was retained and kept in a −20° C. freezer until analysis by LC-MS/MS.
Data analysis was performed using WinNonlin version 3.3 or 4.0.1. A non -compartmental model (#200 for Extravascular administration and #201 for i.v.) was used to determine the pharmacokinetic parameters shown in Tables 4 and 5 (NA=not applicable or not determined).

Data set [4] can be described thus: Measured pKa, log P and log D (determined by pION, Inc.). Conditions: for pKa: read-out: pKa (meas.). In kind it is physicochemical. The method, then:
Measured pKa, log P, and log D values were determined by pION, Inc. (Woburn, Mass.).

[5] abbreviates: male, Sprague Dawley, iv, i.v. 1 mg/kg, citric acid salt, plasma.
The mark [6] stands for this setting: male, Sprague Dawley, oral 10 mg/kg, citric acid salt, plasma.
Where [7] appears, read: oral 10 mg/kg, citric acid salt.
Where [8] appears, read: compared with isopropyl / cyclobutyl analogs.

T1 sequence (Q9Y5N1 whole entry): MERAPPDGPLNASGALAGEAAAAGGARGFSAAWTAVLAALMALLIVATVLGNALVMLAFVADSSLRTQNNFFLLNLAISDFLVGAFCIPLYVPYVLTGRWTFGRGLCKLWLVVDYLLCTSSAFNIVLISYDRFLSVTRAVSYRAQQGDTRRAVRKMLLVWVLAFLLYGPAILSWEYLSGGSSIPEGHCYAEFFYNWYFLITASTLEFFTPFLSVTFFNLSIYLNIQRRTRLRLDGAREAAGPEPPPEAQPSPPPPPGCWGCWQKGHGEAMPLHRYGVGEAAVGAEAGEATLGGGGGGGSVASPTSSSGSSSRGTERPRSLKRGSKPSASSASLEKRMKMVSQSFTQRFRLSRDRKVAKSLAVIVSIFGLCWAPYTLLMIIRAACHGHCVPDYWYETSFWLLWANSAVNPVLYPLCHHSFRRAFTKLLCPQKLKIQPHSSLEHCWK

With `CC(C)N1CCN(C(=O)c2ccc(CN3CCOCC3)cc2)CC1` [Comparative Example 1, (4-Isopropyl-piperazin-1-yl)-(4-morpholin-4-ylmethyl-phenyl) -methanone], in data set [1], the Kb was 1 nM.

A word on the Ki: it is the equilibrium dissociation constant of an inhibitor or competing ligand from its target. One may read the Cmax as the peak of the concentration-time curve. Broadly, the Tmax is the time from dosing to the highest level. Usually half-life stands for the time in which the quantity being followed falls by half. With `CC(C)N1CCN(C(=O)c2ccc(CN3CCC(F)CC3)cc2)CC1.O=C(O)CC(O)(CC(=O)O)C(=O)O` [Comparative Example 3B, [4-(4-Fluoro-piperidin-1-ylmethyl)-phenyl]-(4-isopropyl-piperazin-1-yl)-methanone citrate salt], the Ki in data set [2] was determined as 1 nM. The compound also gave a Kb in data set [1] of 0.251 nM. Also, in data set [3] (i.v. 1 mg/kg, citric acid salt), the “CI” value stood at 44.2 mL/min/kg and the “Vd” value was found to be 29.2 L/kg. The “T1/2” value in data set [3] (i.v. 1 mg/kg, citric acid salt, plasma) was determined as 7.60 h. In data set [3] (setting [5]), the peak concentration (Cmax) is 1490 nM and the AUC(0-inf) turned out to be 1.16 µM·h. In data set [3] (setting [6]), the highest concentration (Cmax) amounted to 160 nM, the Tmax was 1.33 h, the half-life was 8.22 h and the AUC(0-inf) was 1.95 µM·h. Further, in data set [3] (setting [7]), the “CI” value came to 270 mL/min/kg and the “Vd” value is given as 180 L/kg.

For the compound `CC(C)N1CCN(C(=O)c2ccc(CN3CCOC(CO)C3)cc2)CC1` (centres unmarked) [Comparative Example 6, [4-(2-Hydroxymethyl-morpholin-4-ylmethyl)-phenyl]-(4-isopropyl-piperazin-1-yl)-methanone], in data set [2], the inhibition constant (Ki) is 6 nM. For the same compound, in data set [1], the Kb is 6.31 nM.

As to `CC(C)N1CCN(C(=O)c2ccc(CN3CCOCC3)cc2)CC1` [Comparative Example 1A, (4-Isopropyl-piperazin-1-yl)-(4-morpholin-4-ylmethyl-phenyl) -methanone dihydrochloride], the Kb in data set [1] was 1.26 nM.

As to `O=C(O)CC(O)(CC(=O)O)C(=O)O.O=C(c1ccc(CN2CCC(F)CC2)cc1)N1CCN(C2CC2)CC1` [Example 2B, (4-Cyclopropyl-piperazin-1-yl)-[4-(4-fluoro-piperidin-1-ylmethyl)-phenyl]-methanone citrate salt], the Ki in data set [2] worked out at 2 nM. Moreover, the Kb in data set [1] was 1 nM. In data set [3] (setting [8]), the “half-life (T1/2) relative to the comparative examples” value was “shorter T1/2” and the “volume of distribution (Vd) relative to the comparative examples” value is recorded as “lower Vd”. Besides, the “CI” value in data set [3] (i.v. 1 mg/kg, citric acid salt) turned out to be 41.4 mL/min/kg. Moreover, in data set [3] (setting [5]), the Cmax was 3780 nM, the half-life was 1.11 h and the AUC(0-inf) came out at 1.37 µM·h. Moreover, in data set [3] (setting [6]), the highest concentration (Cmax) is 420 nM, the time of peak concentration (Tmax) was 1.67 h, the half-life was 2.72 h and the AUC(0-inf) amounted to 1.91 µM·h. Besides, the Vd in data set [3] (male, Sprague Dawley, plasma, iv, i.v. 1 mg/kg, citric acid salt, read-out: Vd) was 3.94 L/kg. Further, in data set [3] (setting [7]), the “CI” value is given as 431 mL/min/kg and the “Vd” value is 112 L/kg.

Broadly, the logD is lipophilicity at a set pH, counting ionised and neutral species. A higher logD goes with a more lipophilic compound. As a reminder, the logP is the decadic logarithm of the partition coefficient of the neutral form, usually between octanol and water. Higher therefore signals a more lipophilic compound. As a reminder, the pKa is the pH at which an ionisable group is half protonated. For the compound `O=C(c1ccc(CN2CCOCC2)cc1)N1CCN(C2CC2)CC1` [Example 1, (4-Cyclopropyl-piperazin-1-yl)-(4-morpholin-4-ylmethyl-phenyl) -methanone], in data set [4], the logD came to 0.86; the logP is 0.89; the “measured pKa (basicity) relative to calculated value and to isopropyl / cyclobutyl amine analogs” value is recorded as “significantly lower; also recorded: significant decrease in basicity”; the pKa amounted to 6.5. In data set [4] (second value), the pKa came out at 5.3. The inhibitory constant (Ki) in data set [2] stood at 5.4 nM. This compound gave a Kb in data set [1] of 3.98 nM.

Take `O=C(c1ccc(CN2CCOCC2)cc1)N1CCN(C2CCC2)CC1` [Comparative Example 2, (4-Cyclobutyl-piperazin-1-yl)-(4-morpholin-4-ylmethyl-phenyl) -methanone]: in data set [4], the logD was determined as 1.77, the logP turned out to be 2.09 and the pKa amounted to 7.4. Also, in data set [4] (second value), the pKa was found to be 6.5. Besides, the Ki in data set [2] worked out at 1 nM. This compound also had a Kb in data set [1] of 0.316 nM.

For the compound `O=C(c1ccc(CN2CCC(F)CC2)cc1)N1CCN(C2CCC2)CC1` [Comparative Example 4, (4-Cyclobutyl-piperazin-1-yl)-[4-(4-fluoro-piperidin-1-ylmethyl)-phenyl]-methanone], the inhibition constant Ki in data set [2] is 0.7 nM. Further, in data set [1], the Kb is 0.1 nM.
